# Measured values published in US10570180B2, “Anti-bacterial agents and their use in therapy” (priority 2015, dated 2020).
# Like-named read-outs stand apart in the source and are kept apart here. Ends that are not written are not given here.
# What was measured:
# [1] = system: E. faecium CCUG 37832 (TO-3); type: cell-based, Enterococcus faecium; details: CCUG 37832
# Description: (§1) ATX-101 was dissolved in Mueller-Hinton broth to 1.25 times of the desired assay concentration. Antibiotics were dissolved in Mueller-Hinton broth and Mueller-Hinton broth with ATX-101 at a concentration of 1.25 times the highest desired assay concentrations. Antibiotics were pharmaceutical grade purchased from Sigma-Aldrich.
# (§2) Two-fold serial dilutions of antibiotics were made in Mueller-Hinton with different concentrations of ATX-101, and the solutions were placed in four parallel wells is Nunc 384-well micro plates (30 μl per well in Nunc 242757 microplates). A group of 8 wells with no addition of antibiotics for each ATX-101 concentration was included on each micro plate as a growth reference.
# (§3) At the day of analysis, overnight TSB cultures inoculated from freeze stocks (6 ml in 50 ml tube tilted to 45-degrees angle, 200 rpm, 2.5 cm amplitude, 37° C.) were diluted in TSB until the OD800 was 0.10, and further diluted 1:40 in Mueller-Hinton broth. Each well in the 384-well assay plates was inoculated with 7.5 μl of the diluted culture, giving the same dilution of the culture in the assay cultures. The microplates were placed in plastic bags and incubated without shaking at 37° C. The optical density at 600 nm in the microwells was measured after approximately 19 hours of incubation, and the relative growth yield was calculated based on the growth in the reference groups. The MIC value was set to the highest concentration giving less than 30% growth in all 4 parallel wells within the sample groups. The microplates were further incubated for 6 hours, and optical density in the cultures was measured once more for confirmation of the estimated MIC-values.
# Accordingly, concentrations of 8 μg/ml and 16 μg/ml of ATX-101 were combined with various antibiotics selected from; 2,4-Diamin, S. methizol, S. methoxa, S. dimetho, Surfaceta, Trimeth, Flumeq, Levoflox, Pruliflox, Metronid and Nitrofur.
# (§4) The MICS for various APIM peptides were determined for various bacteria, as described above.
# [2] = system: Staphylococcus aureus NCTC 6571; type: cell-based; details: NCTC 6571
# Description: as §1, §2, §3, §4
# E. faecium TO-12 = type: cell-based
# Description: as §1, §2, §3, §4
# [3] = system: Staphylococcus aureus MRSA 1040s; test: microbe, parasite or virus in culture; type: cell-based
# Description: as §1, §2, §3
# as §1, with “The APIM peptide was” for “ATX-101 was”, “with APIM” for “with ATX-101”
# as §2, with “APIM,” for “ATX-101,”, “in” for “is”, “APIM” for “ATX-101”, “as” for “as a”
# as §3, with “inoculated” for “inoculated from”, “OD600” for “OD800”, “culture.” for “culture, giving the same dilution of the culture in the assay cultures.”, “yield in each well” for “yield”
# In view of the anti-bacterial effect of ATX-101 on strains of MRSA, the MIC for a variety of APIM variants was determined using Staphylococcus aureus MRSA 1040s. […] A cell penetrating peptide (SEQ ID NO: 337) present in all of the APIM peptides, was used as a negative control.
# Next, the effect of APIM peptides on the MIC of antibiotics was determined using Staphylococcus aureus MRSA 1040s.
# as §4
# E. faecium CTC 492 = test: MIC assay of antibiotics with ATX-101; type: cell-based, Enterococcus faecium; details: for MIC: Enterococcus faecium, CTC492, E. faecium CTC 492, read-out: Est MIC
# Description: The minimum inhibitory concentration (MIC) of ATX-101 (SEQ ID NO: 1289) was determined for various gram negative and gram positive bacteria. The bacteria, Pseudomonas aeruginosa ATCC 15692, Acinetobacter baumenni ATCC 19600, Escherichia coli ATCC 25922, Pseudomonas aeruginosa TO-5A (clinical isolate), Enterococous faecium CCUG 37832, Enterococcus faecium CTC 492, Micrococcus luteus ATCC 9341 and Escherichie coli NCIMB 12210 were grown in the presence of various concentrations of ATX-101 and/or antibiotic.
# as §1, §2, §3
# as §1, with “The APIM peptide was” for “ATX-101 was”, “with APIM” for “with ATX-101”
# as §2, with “APIM,” for “ATX-101,”, “in” for “is”, “APIM” for “ATX-101”, “as” for “as a”
# as §3, with “inoculated” for “inoculated from”, “OD600” for “OD800”, “culture.” for “culture, giving the same dilution of the culture in the assay cultures.”, “yield in each well” for “yield”
# A. baumanii ATCC 19606 = test: MIC assay of antibiotics with ATX-101; type: cell-based; details: for MIC: Acinetobacter baumannii, ATCC19606, A. baumanii ATCC 19606, read-out: Est MIC; for Est MIC: A. baumanii ATCC 19606
# Description: as §1, with “The APIM peptide was” for “ATX-101 was”, “with APIM” for “with ATX-101”
# as §2, with “APIM,” for “ATX-101,”, “in” for “is”, “APIM” for “ATX-101”, “as” for “as a”
# as §3, with “inoculated” for “inoculated from”, “OD600” for “OD800”, “culture.” for “culture, giving the same dilution of the culture in the assay cultures.”, “yield in each well” for “yield”
compound,measurement,setting,value
MDRFSLKWKKKRKIRRRRRRRRRRR [SEQ ID NO: 1304],MIC,[1],7.5 µM
same,MIC,[2],37.9 µM
same,MIC,E. faecium TO-12,25.3 µM
same,MIC,[3]; 1040s,7.5 µM
CC[C@H]1OC(=O)[C@H](C)[C@@H](O[C@H]2C[C@@](C)(OC)[C@@H](O)[C@H](C)O2)[C@H](C)[C@@H](O[C@@H]2O[C@H](C)C[C@H](N(C)C)[C@H]2O)[C@](C)(O)C[C@@H](C)C(=O)[C@H](C)[C@@H](O)[C@]1(C)O [Erythromycin],MIC,E. faecium CTC 492; APIM (ATX-101) conc. 6.5 μg/ml,4 µg/mL
same,MIC,E. faecium CTC 492; APIM (ATX-101) conc. 13 μg/ml,1 µg/mL
same,MIC,E. faecium CTC 492; APIM conc. 0 μg/ml,4 µg/mL
same,MIC,"[3]; Staphylococcus aureus, Table 6, alone, MRSA 1040s, read-out: MIC",> 1030 µg/mL
same,MIC when combined with 10 μg/ml of ATX-101,"[3]; Table 6, MRSA 1040s",2 µg/mL
CN[C@@H]1[C@@H](O[C@H]2O[C@H](CO)[C@@H](N)[C@H](O)[C@H]2O)OC2C[C@@H](N)[C@@H](O[C@H]3[C@H](O)[C@@H](O)[C@H](N)C[C@@H]3N)OC2[C@@H]1O (some centres unmarked) [Apramycin],MIC,E. faecium CTC 492; APIM (ATX-101) conc. 6.5 μg/ml,64 µg/mL
same,MIC,E. faecium CTC 492; APIM (ATX-101) conc. 13 μg/ml,32 µg/mL
same,MIC,E. faecium CTC 492; APIM conc. 0 μg/ml,64 µg/mL
CO[C@H]1/C=C/O[C@@]2(C)Oc3c(C)c(O)c4c(O)c(c(/C=N/N5CCN(C)CC5)c(O)c4c3C2=O)NC(=O)/C(C)=C\C=C\[C@H](C)[C@H](O)[C@@H](C)[C@@H](O)[C@@H](C)[C@H](OC(C)=O)[C@@H]1C [Rifampicin],MIC,E. faecium CTC 492; APIM (ATX-101) conc. 6.5 μg/ml,32 µg/mL
same,MIC,E. faecium CTC 492; APIM (ATX-101) conc. 13 μg/ml,4 µg/mL
same,MIC,E. faecium CTC 492; APIM (ATX-101) conc. 20 μg/ml,8 µg/mL
same,MIC,E. faecium CTC 492; APIM conc. 0 μg/ml,16 µg/mL
same,MIC,A. baumanii ATCC 19606; APIM (ATX-101) conc. 2 μg/ml,2 µg/mL
same,MIC,A. baumanii ATCC 19606; APIM (ATX-101) conc. 4 μg/ml,1 µg/mL
same,MIC,A. baumanii ATCC 19606; APIM (ATX-101) conc. 8 μg/ml,1 µg/mL
same,MIC,A. baumanii ATCC 19606; APIM conc. 0 μg/ml,2 µg/mL
NC[C@H]1O[C@H](O[C@H]2[C@H](O)[C@@H](O[C@H]3O[C@H](CO)[C@@H](O)[C@H](N)[C@H]3O)[C@H](N)C[C@@H]2N)[C@H](N)C[C@@H]1O [Tobramycin],MIC,E. faecium CTC 492; APIM (ATX-101) conc. 6.5 μg/ml,64 µg/mL
same,MIC,E. faecium CTC 492; APIM (ATX-101) conc. 13 μg/ml,32 µg/mL
same,MIC,E. faecium CTC 492; APIM conc. 0 μg/ml,64 µg/mL
Gentamicin,Est MIC,A. baumanii ATCC 19606; APIM (ATX-101) conc. 2 μg/ml,16 µg/mL
same,Est MIC,A. baumanii ATCC 19606; APIM (ATX-101) conc. 4 μg/ml,8 µg/mL
same,Est MIC,A. baumanii ATCC 19606; APIM conc. 0 μg/ml,16 µg/mL
CC[C@@]1([C@@H]2O[C@@H]([C@H]3O[C@@](O)(CO)[C@H](C)C[C@@H]3C)C[C@@H]2C)CC[C@H]([C@]2(C)CC[C@]3(C[C@H](O)[C@@H](C)[C@@H]([C@@H](C)[C@@H](OC)[C@H](C)C(=O)O)O3)O2)O1 [Monensin],MIC,E. faecium CTC 492; APIM (ATX-101) conc. 6.5 μg/ml,0.5 µg/mL
same,MIC,E. faecium CTC 492; APIM (ATX-101) conc. 13 μg/ml,0.5 µg/mL
same,MIC,E. faecium CTC 492; APIM conc. 0 μg/ml,1 µg/mL
same,MIC,A. baumanii ATCC 19606; APIM (ATX-101) conc. 2 μg/ml,64 µg/mL
same,MIC,A. baumanii ATCC 19606; APIM (ATX-101) conc. 4 μg/ml,64 µg/mL
same,MIC,A. baumanii ATCC 19606; APIM (ATX-101) conc. 8 μg/ml,32 µg/mL
same,MIC,A. baumanii ATCC 19606; APIM conc. 0 μg/ml,64 µg/mL
CC1(C)S[C@@H]2[C@H](NC(=O)[C@H](N)c3ccccc3)C(=O)N2[C@H]1C(=O)O [Ampicillin],MIC,E. faecium CTC 492; APIM (ATX-101) conc. 6.5 μg/ml,0.5 µg/mL
same,MIC,E. faecium CTC 492; APIM (ATX-101) conc. 13 μg/ml,0.5 µg/mL
same,MIC,E. faecium CTC 492; APIM conc. 0 μg/ml,1 µg/mL
same,ampicillin concentration sufficient to inhibit bacterial growth,"E. faecium CTC 492; combined with 6.5 μg/ml or 13 μg/ml ATX-101, FIG. 3",about 0.5 μg/ml
same,ampicillin concentration required for the same level of inhibition,"E. faecium CTC 492; without ATX-101, FIG. 3",1 µg/mL
